From patent EP0126849A1, “Pharmacologically active N-amino hydantoin derivatives, their synthesis and intermediates” (THE WELLCOME FOUNDATION LIMITED, priority 1983, dated 1984)
In brackets after ≈: the same amount, converted by molar mass. Like-named read-outs stand apart in the source and are kept apart here.

What was measured:
[1] = tested on: mean systemic arterial blood pressure (BP); experiment: Cardiovascular actions in rats: fall in blood pressure and duration of the hypotensive effect; format: in vivo, male Wistar rats; details: for Fall in BP Relative Potency PGE1 / Fall in BP Relative Potency PGI2: anaesthetized rat, i.v. injection; for Fall in BP Relative Potency PGE1: potency ratio against PGE1; for Fall in BP Relative Potency PGI2: potency ratio against PGI2; for Duration t½: time from peak hypotensive response to recovery to half its peak, rat i.v.
Experimental: Anaesthesia was induced in male Wistar rats (250-300 g body weight) with sodium pentobarbitone (30 mg kg^-1, i.v.) and supplemented (3 mg kg^-1) when required. Arterial pressure was recorded from a cannulated femoral artery and heart rate derived from the arterial pulse. Rectal temperature was maintained at 37°C by thermistor-controlled radiant heat. Each compound was injected into a femoral vein in a volume of 0.25 ml and flushed in with 0.2 ml of saline (0.9% w/v). Dose-response relationships for the fall in mean systemic arterial blood pressure (BP) with the hydantoins were constructed and compared to those obtained with PGI2 and PGE, in the same animal, and a potency ratio calculated. […] Figures for Compound X and PGI2 are listed for comparison.

platelet aggregation = experiment: Inhibition of platelet aggregation in human platelet-rich plasma (Born-type aggregometer, ADP or other aggregating agent); format: cell-based; details: for IC50 / Potency relative to PGI2: human PRP; for IC50: 1 min incubation at 37°C before aggregating agent; for Potency relative to PGI2: 1 min incubation, PGI2 = 1; for Increase on Incubation (min) 5: increase in potency after 5 min incubation in PRP
Experimental: Human blood was freshly collected into siliconized (Siloclad; Clay Adams) plastic (Sterilin Ltd.) vessels containing trisodium citrate (3.15%; 0.1 volume with 0.9 volume blood) and centrifuged (200 g for 15 min) at room temperature. The platelet-rich plasma (PRP) was withdrawn into plastic containers and kept at room temperature. Inhibition of […] prior to addition of sufficient adenosine diphosphate (ADP) or other aggregating agent to just cause a non-reversing control aggregation. Dose-inhibition curves were constructed for each compound and the ID50 (dose causing 50% inhibition) was calculated as the dose required to reduce the aggregation to 50% of its control amplitude. […] For comparison, also given are the results upon administration of 5-(6-carboxyhexyl)-1-(3-cyclohexyl-3-hydroxypropyl)hydantoin (Compound X) which is disclosed in UK Specification 1,595,694. -
In this and subsequent biological examples, where a compound number refers to a single diastereoisomer, a mixture of diastereoisomers is indicated by two compound numbers separated by /.

B.P. = experiment: Cardiovascular studies in the dog: vasodepressor potency and duration; format: in vivo, Dogs; details: i.v. bolus
Experimental: Dogs (10-15 kg body weight) were anaesthetized with chloralose (80 mg/kg i.v.) and maintained with subcutaneous injections of pentobarbitone (3 mg/kg). Drugs were administered via a femoral vein by bolus injection and B.P. was recorded from the right femoral artery. Results give vasodepressor potency and t1 2 duration. Figures for Compound X are provided for comparison.

[2] = tested on: acid-ethanol induced gastric lesions; experiment: Inhibition of acid-ethanol induced gastric lesions in rats (cytoprotection); format: in vivo; details: rat, oral
Experimental: The inhibition of acid-ethanol induced gastric lesions in rats (cytoprotection) was measured for various doses of orally administered hydantoin. Figures for compound X are given for comparison.

[3] = tested on: systemic arterial blood pressure (BP); experiment: Concurrent change in systemic arterial blood pressure in anaesthetized rabbits; format: in vivo; details: anaesthetized rabbit, i.v. infusion, at the ED50 dose
Experimental: Male rabbits (2-2.5 kg body weight) were anaesthetized with sodium pentobarbitone (30 mg/kg, i.v. followed by maintenance doses of 3mg/kg) and systemic arterial blood pressure (BP) was recorded from a cannula filled with heparinized saline (5 units/ml) in a carotid artery; no heparin was administered to the animal. Hydantoins were administered via a cannula in a femoral vein. Blood samples (1.5 ml) were slowly collected into a plastic syringe containing tri-sodium citrate (3.18%, 0.15 ml) from a cannula inserted into a femoral artery, shaken gently and transferred to an Eppendorf plastic tube and spun in a modified Eppendorf centrifuge for 2 sec (Model 5412, maximum centrifugal force 10,000 x g). The PRP was collected and a 0.35 ml aliquot was transferred to the aggregometer and incubated at 37°C for 1 minute prior to addition of sufficient ADP (20 µM) to produce near-maximal aggregation. The time-interval between removal of blood samples and the transference of the PRP to the aggregometer was less than 1.5 min. […] After three control blood samples had been prepared and the control aggregation of the platelets measured, the hydantoin was infused intravenously for 15 min from a Braun slow-infusion apparatus. Blood samples were collected 10 min after the start of the infusion. Two further 10 min. samples post-infusion were collected prior to commencing further infusions. The following results list values of ED50 and change in blood pressure. For comparison, also given are the results obtained upon administration of PGIZ and Compound X.

[4] = tested on: rabbit platelet aggregation; experiment: Ex vivo rabbit platelet aggregation after i.v. infusion of the hydantoin (ADP 20 µM); format: in vivo, rabbits; details: i.v. infusion for 15 min, blood sample 10 min after start of infusion
Experimental: Male rabbits (2-2.5 kg body weight) were anaesthetized with sodium pentobarbitone (30 mg/kg, i.v. followed by maintenance doses of 3mg/kg) and systemic arterial blood pressure (BP) was recorded from a cannula filled with
heparinized saline (5 units/ml) in a carotid artery; no heparin was administered to the animal. Hydantoins were administered via a cannula in a femoral vein. Blood samples (1.5 ml) were slowly collected into a plastic syringe containing tri-sodium citrate (3.18%, 0.15 ml) from a cannula inserted into a femoral artery, shaken gently and transferred to an Eppendorf plastic tube and spun in a modified Eppendorf centrifuge for 2 sec (Model 5412, maximum centrifugal force 10,000 x g). The PRP was collected and a 0.35 ml aliquot was transferred to the aggregometer and incubated at 37°C for 1 minute prior to addition of sufficient ADP (20 µM) to produce near-maximal aggregation. The time-interval between removal of blood samples and the transference of the PRP to the aggregometer was less than 1.5 min.
Blood samples were removed at 10 min. intervals once the BP of the rabbit had reached steady resting levels, 10-20 min. following the preparative surgical procedures. After three control blood samples had been prepared and the control aggregation of the platelets measured, the hydantoin was infused intravenously for 15 min from a Braun slow-infusion apparatus. Blood samples were collected 10 min after the start of the infusion. Two further 10 min. samples post-infusion were collected prior to commencing further infusions.
The following results list values of ED50 and change in blood pressure. For comparison, also given are the results obtained upon administration of PGIZ and Compound X.

[5] = Homo sapiens, Platelet, 1 min, read-out: IC50

| SMILES | Fall in BP Relative Potency PGE1 [1] | Fall in BP Relative Potency PGI2 [1] | Duration t½ [1] [min] | IC50 (platelet aggregation; [5]) [ng/mL] | Potency relative to PGI2 (platelet aggregation) | Increase on Incubation (min) 5 (platelet aggregation) | IC50 (platelet aggregation) [ngml^-1] | further results |
| --- | --- | --- | --- | --- | --- | --- | --- | --- |
| O=C(O)CCCCCCC1C(=O)NC(=O)N1N=CC(O)c1ccccc1 (single isomer, unassigned) [Compound No. 11, 5-(6-carboxyhexyl)-1-(2-hydroxy-2-phenylethylldeneamino)hydantoln] | 1.1 | 0.1 | 16.0 | 1 (≈ 0.00277 µM) | 0.53 | x8 | – | – |
| CCCCCC(O)CNN1C(=O)NC(=O)C1CCCCCCC(=O)O (single isomer, unassigned) [Compound No. 35, 5-(6-carboxyhexyl)-I-(2-hydroxyheptylamino)hydantoin] | – | 0.01 | 1.3 | 12.7 (≈ 0.0355 µM) | 0.05 | x1.5 | – | – |
| O=C(O)CCCCCCC1C(=O)NC(=O)N1NCC(O)C1CCCCC1 (single isomer, unassigned) [compound 29, 5-(6-carboxyhexyl)-1-(2-cyclohexyl-2-hydroxyethylamino)hydantoln] | 0.24 | 0.02 | 37 | 6 (≈ 0.0162 µM) | 0.16 | x7 | – | Δ BP (B.P.; Dose 0.625 ug kg^-1): -26 mm Hg; t1/2 (B.P.; Dose 0.625 ug kg^-1, duration of vasodepressor effect): >30 min; Δ BP (B.P.; Dose 1.25 ug kg^-1): -51 mm Hg; t1/2 (B.P.; Dose 1.25 ug kg^-1, duration of vasodepressor effect): >60 min |
| CCOC(=O)CCCCCCC1C(=O)NC(=O)N1N=CC(OC(C)=O)C1CCCCC1 (stereo not shown) [4/5, 1-(2-acetoxy-2-cyclohexylethylideneamino)-5-(6-ethoxycarbonylhexyl)hydantoin] | – | – | – | – | – | – | – | % inhibition ([2]; Dose 50 μg kg^-1): 90 ± 6% |
| CCCCCC(O)C=NN1C(=O)NC(=O)C1CCCCCCC(=O)O (stereo not shown) [17/18, 5-(6-carboxyhexyl)-1-(2-hydroxyheptylideneamino)hydantoin] | 0.48 | 0.04 | 10 to 19 | – | 0.12 | x2 | 8 | – |
| O=C(O)CCCCCCC1C(=O)NC(=O)N1N=CC(O)Cc1ccccc1 (stereo not shown) [23/24, 5-(6-carboxyhexyl)-1-(2-hydroxy-3-phenylpropylideneamino)hydantoin] | – | – | – | – | – | – | – | % inhibition ([2]; Dose 10 μg kg^-1): 55 ± 15% |
| CN1C(=O)C(CCCCCCC(=O)O)N(N=CC(O)C2CCCCC2)C1=O (stereo not shown) [25/26, 5-(6-carboxyhexyl)-1-(2-cyclohexyl-2-hydroxyethylideneamino)-3-methylhydantoin] | 1.08 | 0.09 | 9 | 13 (≈ 0.0341 µM) | 0.06 | x6 | – | – |
| O=C(O)CCCCCCC1C(=O)NC(=O)N1NCC(O)c1ccccc1 (stereo not shown) [33/34, 5-(6-carboxyhexyl)-1-(2-hydroxy-2-phenylethylamino) hydantoin] | 0.24 | 0.02 | 6 | – | 0.17 | x2 | 6 | – |
| CCCCCC(O)CNN1C(=O)NC(=O)C1CCCCCCC(=O)O (stereo not shown) [35/36, 5-(6-carboxyhexyl)-1-(2-hydroxyheptylamino)hydantoin] | – | 0.06 | 0.1 | 1.27 (≈ 0.00355 µM) | 0.49 | x1.5 | – | – |
| CN1C(=O)C(CCCCCCC(=O)O)N(NCC(O)C2CCCCC2)C1=O (stereo not shown) [37/38] | 0.36 | 0.03 | 17 | 3 (≈ 0.00782 µM) | 0.18 | x7 | – | % inhibition ([2]; Dose 10 μg kg^-1): 71 ± 7% |
| CCCCCC(O)C=NN1C(=O)NC(=O)C1CCCCCCC(=O)O (stereo not shown) [Compound No. 17, 5-(6-carboxyhexyl)-1-(2-hydroxyheptylideneamino)hydantoin] | 0.12 | 0.01 | 3.5 | – | 0.01 | x2 | 131 | – |
| O=C(O)CCCCCCC1C(=O)NC(=O)N1NCC(O)C1CCCCC1 (stereo not shown) [Compound No. 30, 5-(6-carboxyhexyl)-1-(2-cyclohexyl-2-hydroxyethylamino) hydantoin] | 0.24 | 0.02 | 28 | 0.9 (≈ 0.00244 µM) | 0.64 | x6 | – | % inhibition ([2]; Dose 25 μg kg^-1): 65 ± 17% |
| O=C(O)CCCCCCC1C(=O)NC(=O)N1NCC(O)c1ccccc1 (stereo not shown) [Compound No. 33, 5-(6-carboxyhexyl)-1-(2-hydroxy-2-phenylethylamino)hydantoin] | – | – | – | – | 0.07 | x2 | 5.3 | – |
| O=C(O)CCCCCCC1C(=O)NC(=O)N1NCC(O)c1ccccc1 (stereo not shown) [Compound No. 34, 5-(6-carboxyhexyl)-1-(2-hydroxy-2-phenylethylamino)hydantoin] | – | – | – | – | 0.003 | – | 175 | – |
| CCCCC[C@H](O)/C=C/[C@@H]1[C@H]2C/C(=C/CCCC(=O)O)O[C@H]2C[C@H]1O [PGI2, reference compound] | 11.0 | – | 0.3 | – | – | – | – | Δ BP [3]: -20 mmHg; ED50 [4]: 0.2 µg/kg/min |
| O=C(O)CCCCCCC1C(=O)NC(=O)N1N=CCC1CCCCC1 (stereo not shown) [compound 8, 5-(6-carboxyhexyl)-1-(2-cyclahexylethylideneamino) hydantoin] | 0.11 | 0.01 | 1.0 | 24 (≈ 0.0683 µM) | 0.05 | – | – | % inhibition ([2]; Dose 25 μg kg^-1): 71 ± 6%; % inhibition ([2]; Dose 50 μg kg^-1): 76 ± 11% |
